From PubChem BioAssay (NCI)
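Dose response: 5 concentrations. Exposure: 48 h. Format: 96-well plates. Endpoint: linear interpolation; highest concentration if not reached. TGI: total growth inhibition.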

Experiments:
Assay in all cases: NCI anticancer screen, dose series, 48 h
786-0 renal = tested on: 786-0 renal
A549 NSCLC = tested on: A549 NSCLC
ACHN renal = tested on: ACHN renal
BT-549 breast = tested on: BT-549 breast
CAKI-1 renal = tested on: CAKI-1 renal
CCRF-CEM leukemia = tested on: CCRF-CEM leukemia
COLO 205 colon = tested on: COLO 205 colon
DLD-1 colon = tested on: DLD-1 colon
DMS 273 small cell lung = tested on: DMS 273 small cell lung
EKVX NSCLC = tested on: EKVX NSCLC
HCC-2998 colon = tested on: HCC-2998 colon
HCT-116 colon = tested on: HCT-116 colon
HCT-15 colon = tested on: HCT-15 colon
HL-60(TB) leukemia = tested on: HL-60(TB) leukemia
HOP-62 NSCLC = tested on: HOP-62 NSCLC
HT29 colon = tested on: HT29 colon
IGROV1 ovarian = tested on: IGROV1 ovarian
K-562 leukemia = tested on: K-562 leukemia
KM12 colon = tested on: KM12 colon
KM20L2 colon = tested on: KM20L2 colon
LOX IMVI melanoma = tested on: LOX IMVI melanoma
LXFL 529 NSCLC = tested on: LXFL 529 NSCLC
M14 melanoma = tested on: M14 melanoma
M19-MEL melanoma = tested on: M19-MEL melanoma
MALME-3M melanoma = tested on: MALME-3M melanoma
MCF7 breast = tested on: MCF7 breast
MDA-MB-435 = tested on: MDA-MB-435
NCI-H226 lung = tested on: NCI-H226 lung
NCI-H23 lung = tested on: NCI-H23 lung
NCI-H460 lung = tested on: NCI-H460 lung
NCI-H522 lung = tested on: NCI-H522 lung
OVCAR-3 ovarian = tested on: OVCAR-3 ovarian
OVCAR-4 ovarian = tested on: OVCAR-4 ovarian
OVCAR-5 ovarian = tested on: OVCAR-5 ovarian
RPMI-8226 leukemia = tested on: RPMI-8226 leukemia
RXF 393 renal = tested on: RXF 393 renal
RXF-631 renal = tested on: RXF-631 renal
SF-268 CNS = tested on: SF-268 CNS
SF-295 CNS = tested on: SF-295 CNS
SF-539 CNS = tested on: SF-539 CNS
SK-MEL-2 melanoma = tested on: SK-MEL-2 melanoma
SK-MEL-28 melanoma = tested on: SK-MEL-28 melanoma
SK-MEL-5 melanoma = tested on: SK-MEL-5 melanoma
SK-OV-3 ovarian = tested on: SK-OV-3 ovarian
SN12C renal = tested on: SN12C renal
SNB-19 CNS = tested on: SNB-19 CNS
SNB-75 CNS = tested on: SNB-75 CNS
SNB-78 CNS = tested on: SNB-78 CNS
SR leukemia = tested on: SR leukemia
SW-620 colon = tested on: SW-620 colon
TK-10 renal = tested on: TK-10 renal
U251 CNS = tested on: U251 CNS
UACC-257 melanoma = tested on: UACC-257 melanoma
UACC-62 melanoma = tested on: UACC-62 melanoma
UO-31 renal = tested on: UO-31 renal
XF 498 CNS = tested on: XF 498 CNS
A498 renal = tested on: A498 renal
HOP-18 NSCLC = tested on: HOP-18 NSCLC
HOP-92 NSCLC = tested on: HOP-92 NSCLC
MOLT-4 leukemia = tested on: MOLT-4 leukemia
OVCAR-8 ovarian = tested on: OVCAR-8 ovarian
DMS 114 small cell lung = tested on: DMS 114 small cell lung

`COc1ccc2nc3ccccc3c(NCCCCN(C)CCCl)c2c1` showed a TGI (786-0 renal) of 0.185 µM, a TGI (A549 NSCLC) of 1.87 µM and a TGI (ACHN renal) of 0.132 µM. The TGI (BT-549 breast) was 1.98 µM, the TGI (CAKI-1 renal) was 0.381 µM and the TGI (CCRF-CEM leukemia) was 0.229 µM. The TGI (COLO 205 colon) was 0.0789 µM, the TGI (DLD-1 colon) was 0.964 µM and the TGI (DMS 273 small cell lung) was 0.283 µM. The TGI (EKVX NSCLC) was 3.05 µM, the TGI (HCC-2998 colon) was 0.467 µM and the TGI (HCT-116 colon) was 0.303 µM. For the same compound, the TGI (HCT-15 colon) was 0.494 µM, the TGI (HL-60(TB) leukemia) was 0.0435 µM and the TGI (HOP-62 NSCLC) was 0.546 µM. It also gave a TGI (HT29 colon) of 1.46 µM, a TGI (IGROV1 ovarian) of 0.877 µM and a TGI (K-562 leukemia) of 0.93 µM. It also gave a TGI (KM12 colon) of 0.4 µM, a TGI (KM20L2 colon) of 0.478 µM and a TGI (LOX IMVI melanoma) of 0.539 µM. It also gave a TGI (LXFL 529 NSCLC) of 0.189 µM, a TGI (M14 melanoma) of 0.314 µM and a TGI (M19-MEL melanoma) of 0.602 µM. The TGI (MALME-3M melanoma) was 1.06 µM, the TGI (MCF7 breast) was 0.172 µM and the TGI (MDA-MB-435) was 0.325 µM. The TGI (NCI-H226 lung) was 0.575 µM, the TGI (NCI-H23 lung) was greater than 100 µM and the TGI (NCI-H460 lung) was 0.234 µM. It also gave a TGI (NCI-H522 lung) of 0.0763 µM, a TGI (OVCAR-3 ovarian) of 0.712 µM and a TGI (OVCAR-4 ovarian) of 0.843 µM. It also gave a TGI (OVCAR-5 ovarian) of 1.08 µM, a TGI (RPMI-8226 leukemia) of 0.544 µM and a TGI (RXF 393 renal) of 0.362 µM. For the same compound, the TGI (RXF-631 renal) was 0.367 µM, the TGI (SF-268 CNS) was 0.756 µM and the TGI (SF-295 CNS) was 1.17 µM. It also gave a TGI (SF-539 CNS) of 0.284 µM, a TGI (SK-MEL-2 melanoma) of 0.666 µM and a TGI (SK-MEL-28 melanoma) of 2.39 µM. For the same compound, the TGI (SK-MEL-5 melanoma) was 0.442 µM, the TGI (SK-OV-3 ovarian) was 0.469 µM and the TGI (SN12C renal) was 0.128 µM. The TGI (SNB-19 CNS) was 0.707 µM, the TGI (SNB-75 CNS) was 0.504 µM and the TGI (SNB-78 CNS) was 0.674 µM. It also gave a TGI (SR leukemia) of 0.0355 µM, a TGI (SW-620 colon) of 0.2 µM and a TGI (TK-10 renal) greater than 31.9 µM. It also gave a TGI (U251 CNS) of 0.251 µM, a TGI (UACC-257 melanoma) of 4.93 µM and a TGI (UACC-62 melanoma) of 0.305 µM. It also gave a TGI (UO-31 renal) of 1.22 µM and a TGI (XF 498 CNS) of 0.293 µM.

`CCSC(SCC)=C1C(=O)N(c2ccccc2)N=C1C` showed a TGI (786-0 renal) of 27 µM, a TGI (A498 renal) of 28.8 µM and a TGI (A549 NSCLC) of 35.1 µM. It also gave a TGI (ACHN renal) of 29.4 µM, a TGI (CAKI-1 renal) of 15.8 µM and a TGI (CCRF-CEM leukemia) of 11 µM. For the same compound, the TGI (COLO 205 colon) was 7.08 µM, the TGI (DLD-1 colon) was 26.8 µM and the TGI (DMS 273 small cell lung) was 32 µM. The TGI (EKVX NSCLC) was 28.5 µM, the TGI (HCC-2998 colon) was 27.6 µM and the TGI (HCT-116 colon) was 28.3 µM. The TGI (HCT-15 colon) was 24.7 µM, the TGI (HL-60(TB) leukemia) was 7.35 µM and the TGI (HOP-18 NSCLC) was 29.4 µM. For the same compound, the TGI (HOP-62 NSCLC) was 53.7 µM, the TGI (HOP-92 NSCLC) was 20.1 µM and the TGI (HT29 colon) was 39.4 µM. For the same compound, the TGI (IGROV1 ovarian) was 33.2 µM, the TGI (K-562 leukemia) was 23.3 µM and the TGI (KM12 colon) was 35.3 µM. It also gave a TGI (KM20L2 colon) of 30.5 µM, a TGI (LOX IMVI melanoma) of 26.4 µM and a TGI (LXFL 529 NSCLC) of 22.6 µM. For the same compound, the TGI (M14 melanoma) was 29.7 µM, the TGI (M19-MEL melanoma) was 1.83 µM and the TGI (MALME-3M melanoma) was 28.3 µM. The TGI (MOLT-4 leukemia) was 23.4 µM, the TGI (NCI-H226 lung) was 29.9 µM and the TGI (NCI-H23 lung) was 34.9 µM. For the same compound, the TGI (NCI-H460 lung) was 29.5 µM, the TGI (NCI-H522 lung) was 5.05 µM and the TGI (OVCAR-3 ovarian) was 20.2 µM. The TGI (OVCAR-5 ovarian) was 29.9 µM, the TGI (OVCAR-8 ovarian) was 24.4 µM and the TGI (RPMI-8226 leukemia) was 27 µM. It also gave a TGI (RXF 393 renal) of 5.89 µM, a TGI (SF-268 CNS) of 29.1 µM and a TGI (SF-295 CNS) of 73.5 µM. For the same compound, the TGI (SK-MEL-2 melanoma) was 33 µM, the TGI (SK-MEL-28 melanoma) was 26.5 µM and the TGI (SK-MEL-5 melanoma) was 33.1 µM. The TGI (SK-OV-3 ovarian) was 33.4 µM, the TGI (SN12C renal) was 30 µM and the TGI (SNB-19 CNS) was 62.8 µM. The TGI (SNB-75 CNS) was 43.9 µM, the TGI (SNB-78 CNS) was 46.3 µM and the TGI (SR leukemia) was 38.4 µM. The TGI (SW-620 colon) was 20.3 µM, the TGI (TK-10 renal) was 22.2 µM and the TGI (UACC-257 melanoma) was 18.5 µM. It also gave a TGI (UACC-62 melanoma) of 28 µM, a TGI (UO-31 renal) of 29 µM and a TGI (XF 498 CNS) of 22.7 µM.

`COC(=O)/C(=N/NC(N)=O)C(C(=O)OC)C(=O)C(=O)Nc1ccc(Cl)cc1` (configuration not stated) gave a TGI (786-0 renal) greater than 100 µM, a TGI (A498 renal) greater than 100 µM and a TGI (A549 NSCLC) greater than 100 µM. For the same compound, the TGI (ACHN renal) was greater than 100 µM, the TGI (CAKI-1 renal) was greater than 100 µM and the TGI (CCRF-CEM leukemia) was greater than 75.5 µM. It also gave a TGI (COLO 205 colon) greater than 100 µM, a TGI (DLD-1 colon) greater than 100 µM and a TGI (DMS 114 small cell lung) greater than 100 µM. The TGI (DMS 273 small cell lung) was greater than 100 µM, the TGI (EKVX NSCLC) was greater than 100 µM and the TGI (HCC-2998 colon) was greater than 100 µM. For the same compound, the TGI (HCT-116 colon) was greater than 100 µM, the TGI (HCT-15 colon) was greater than 100 µM and the TGI (HL-60(TB) leukemia) was greater than 100 µM. For the same compound, the TGI (HOP-18 NSCLC) was greater than 100 µM, the TGI (HOP-62 NSCLC) was greater than 100 µM and the TGI (HOP-92 NSCLC) was greater than 100 µM. It also gave a TGI (HT29 colon) greater than 100 µM, a TGI (IGROV1 ovarian) greater than 100 µM and a TGI (K-562 leukemia) greater than 62.6 µM. It also gave a TGI (KM12 colon) greater than 100 µM, a TGI (KM20L2 colon) greater than 100 µM and a TGI (LOX IMVI melanoma) greater than 100 µM. The TGI (LXFL 529 NSCLC) was greater than 100 µM, the TGI (M14 melanoma) was greater than 100 µM and the TGI (M19-MEL melanoma) was greater than 100 µM. For the same compound, the TGI (MALME-3M melanoma) was greater than 100 µM, the TGI (MOLT-4 leukemia) was greater than 100 µM and the TGI (NCI-H226 lung) was greater than 100 µM. It also gave a TGI (NCI-H23 lung) greater than 100 µM, a TGI (NCI-H460 lung) greater than 100 µM and a TGI (NCI-H522 lung) greater than 100 µM. The TGI (OVCAR-3 ovarian) was greater than 100 µM, the TGI (OVCAR-4 ovarian) was greater than 100 µM and the TGI (OVCAR-5 ovarian) was greater than 100 µM. The TGI (OVCAR-8 ovarian) was greater than 100 µM, the TGI (RPMI-8226 leukemia) was greater than 100 µM and the TGI (RXF 393 renal) was greater than 100 µM. It also gave a TGI (SF-268 CNS) greater than 100 µM, a TGI (SF-295 CNS) greater than 100 µM and a TGI (SF-539 CNS) greater than 100 µM. It also gave a TGI (SK-MEL-2 melanoma) greater than 100 µM, a TGI (SK-MEL-28 melanoma) greater than 100 µM and a TGI (SK-MEL-5 melanoma) greater than 100 µM. The TGI (SK-OV-3 ovarian) was greater than 100 µM, the TGI (SN12C renal) was greater than 100 µM and the TGI (SNB-19 CNS) was greater than 100 µM. The TGI (SNB-75 CNS) was greater than 100 µM, the TGI (SR leukemia) was 46.5 µM and the TGI (SW-620 colon) was greater than 100 µM. For the same compound, the TGI (TK-10 renal) was greater than 100 µM, the TGI (U251 CNS) was greater than 100 µM and the TGI (UACC-257 melanoma) was greater than 100 µM. The TGI (UACC-62 melanoma) was greater than 100 µM, the TGI (UO-31 renal) was greater than 100 µM and the TGI (XF 498 CNS) was greater than 100 µM.
